# According to US9549941B2, “Compositions and methods for treating hepatitis C virus” (priority 2011, dated 2017):
# Experiments:
# [1] = test system: 1a-H77 sub-genomic replicon, NS5B S282T; test: microbe, parasite or virus in culture; assay type: cell-based, hepatitis C virus
# Protocol: (§1) (Lam et al., J. Virology (2011) 85(23): 12334-12342; Lam et al., Antimicrob. Agents Chemother. (2012) 56(6): 3359-3368.) S282T mutations in NS5B were created by site-directed mutagenesis in 1a-H77, 1b con-1, and 2a JFH1 sub-genomic replicons. 1b con-1-based chimeric replicons containing 2b, 3a, 4a, 5a, or 6a NS5B were also engineered to harbor the S282T mutation. […] Relative percentages of mutant and WT were assessed by deep sequencing.
# [2] = test system: 1a-H77 sub-genomic replicon, wild-type NS5B; test: Transient replicon assay; assay type: cell-based; conditions: Hepatitis C virus, read-out: EC50 WT
# Protocol: as §1
# [3] = test system: 1b con-1-based chimeric replicon containing 5a NS5B, wild-type; test: Transient replicon assay; assay type: cell-based; conditions: Hepatitis C virus, read-out: EC50 WT
# Protocol: as §1
# [4] = test system: mixture of 50% S282T and 50% WT in GT2a replicons; test: Long-term passaging study with deep sequencing; assay type: cell-based, hepatitis C virus; parameters: population mutant S282T: concentration or dose not given beside the values; conditions: over fifteen days
# From the text: In vitro studies have shown that S282T is the primary mutation selected by GS-7977 in HCV genotype 1a, 1b and 2a replicon cells. (Lam et al., J. Virology (2011) 85(23): 12334-12342; Lam et al., Antimicrob. Agents Chemother. (2012) 56(6): 3359-3368.) S282T mutations in NS5B were created by site-directed mutagenesis in 1a-H77, 1b con-1, and 2a JFH1 sub-genomic replicons. 1b con-1-based chimeric replicons containing 2b, 3a, 4a, 5a, or 6a NS5B were also engineered to harbor the S282T mutation. […] Relative percentages of mutant and WT were assessed by deep sequencing.
# (See also Han et al., 63rd Annual Meeting of the American Association for the Study of Liver Diseases, Poster 1078, Nov. 11, 2012.)
# HCV GT2 or GT3 = test: ELECTRON Phase 2a clinical study, treatment-naive GT2/GT3 (Groups 1-6, 10); assay type: in vivo, human; conditions: for HCV RNA (log10 IU/mL), mean: GT2/GT3 Tx-naive, N=10; for HCV RNA below LOD, %: Genotype 2/3 Treatment Naive (Groups 1-6); for % < LOD / n/N < LOD: Groups 1-5, GT2/GT3 Tx-naive
# Protocol: In comparison, only 60% of treatment-naïve GT2/GT3 HCV patients receiving GS-7977 monotherapy achieved SVR-12.
# Group 1: GS-7977 (400 mg QD) with RBV (1000/1200 mg BID) for 12 weeks (no peginterferon) (GT2/GT3 treatment-naïve); and
# Groups 2, 3, 4: GS-7977 (400 mg QD) with RBV (1000/1200 mg BID) for 12 weeks and PEG (180 μg weekly) weeks 1-4 only/PEG (180 μg weekly) weeks 1-8 only/PEG (180 μg weekly) weeks 1-12 (GT2/GT3 treatment-naïve).
# In Part 2 of the ELECTRON trial, an additional 30 patients were enrolled in exploratory regimens of GS-7977 monotherapy and abbreviated durations of total therapy with the combination of GS-7977, RBV and PEG:
# Group 5: GS-7977 (400 mg QD) monotherapy for 12 weeks (GT2/GT3 treatment-naïve);
# Group 6: GS-7977 (400 mg QD) with PEG (180 μg weekly) and RBV (1000/1200 mg BID) for 8 weeks (GT2/GT3 treatment-naïve); and
# Group 10: GS-7977 (400 mg QD) with RBV (1000/1200 mg BID) for 8 weeks (GT2/GT3 treatment-naïve); and […]
# [5] = ELECTRON Grade 3/4 hematologic (laboratory) abnormalities; assay type: in vivo, human; conditions: Groups 1-6 (GT2/GT3 Tx-naive)
# HCV NS5B S282T = test: GS-7977 resistance in Phase 2 clinical studies, population and deep sequencing of NS5B; assay type: in vivo, human; conditions: one GT2b patient, relapse 4 weeks after 12 weeks of monotherapy
smiles,measurement,setting,value
"CC(C)OC(=O)[C@H](C)N[P@](=O)(OC[C@H]1O[C@@H](n2ccc(=O)[nH]c2=O)[C@](C)(F)[C@@H]1O)Oc1ccccc1 [GS-7977, (S)-isopropyl 2-(((S)-(((2R,3R,4R,5R)-5-(2,4-dioxo-3,4-dihydropyrimidin-1(2H)-yl)-4-fluoro-3-hydroxy-4-methyltetrahydrofuran-2-yl)methoxy)(phenoxy)phosphoryl)amino)propanoate]",EC50,"[1]; Hepatitis C virus, read-out: EC50 S282T",253 nM
same,Fold Change,"[1]; genotype 1a, S282T from corresponding wild-type",10.1
same,EC50,[2],25.1 nM
same,EC50,[3],9.91 nM
same,population mutant S282T,[4],92%
same,"HCV RNA (log10 IU/mL), mean",HCV GT2 or GT3; D1,5.74 log10 IU/mL
same,"HCV RNA (log10 IU/mL), mean",HCV GT2 or GT3; D1 (6 hr) after dosing,5.63 log10 IU/mL
same,"HCV RNA (log10 IU/mL), mean",HCV GT2 or GT3; D1 (12 hr) after dosing,4.98 log10 IU/mL
same,"HCV RNA (log10 IU/mL), mean",HCV GT2 or GT3; D2,3.75 log10 IU/mL
same,"HCV RNA (log10 IU/mL), mean",HCV GT2 or GT3; D3,2.62 log10 IU/mL
same,"HCV RNA (log10 IU/mL), mean",HCV GT2 or GT3; T = 0 (initial screening values),6.08 log10 IU/mL
same,"HCV RNA (log10 IU/mL), mean",HCV GT2 or GT3; W1,1.56 log10 IU/mL
same,"HCV RNA (log10 IU/mL), mean",HCV GT2 or GT3; W2,1.22 log10 IU/mL
same,"HCV RNA (log10 IU/mL), mean",HCV GT2 or GT3; W3,1.15 log10 IU/mL
same,"HCV RNA (log10 IU/mL), mean",HCV GT2 or GT3; W4,1.15 log10 IU/mL
same,"HCV RNA (log10 IU/mL), mean",HCV GT2 or GT3; W5,1.15 log10 IU/mL
same,"HCV RNA (log10 IU/mL), mean",HCV GT2 or GT3; W6,1.15 log10 IU/mL
same,"HCV RNA (log10 IU/mL), mean",HCV GT2 or GT3; W7,1.15 log10 IU/mL
same,"HCV RNA (log10 IU/mL), mean",HCV GT2 or GT3; W8,1.15 log10 IU/mL
same,"HCV RNA (log10 IU/mL), mean",HCV GT2 or GT3; W9,1.15 log10 IU/mL
same,"HCV RNA (log10 IU/mL), mean",HCV GT2 or GT3; W10,1.15 log10 IU/mL
same,"HCV RNA (log10 IU/mL), mean",HCV GT2 or GT3; W11,1.15 log10 IU/mL
same,"HCV RNA (log10 IU/mL), mean",HCV GT2 or GT3; W12 (end of treatment),1.15 log10 IU/mL
same,"HCV RNA (log10 IU/mL), mean",HCV GT2 or GT3; W14 (after 12-week treatment),1.66 log10 IU/mL
same,"HCV RNA (log10 IU/mL), mean",HCV GT2 or GT3; W16 (after 12-week treatment),2.95 log10 IU/mL
same,"HCV RNA (log10 IU/mL), mean",HCV GT2 or GT3; W20 (after 12-week treatment),3.12 log10 IU/mL
same,"HCV RNA (log10 IU/mL), mean",HCV GT2 or GT3; W24 (12 weeks after treatment),3.17 log10 IU/mL
same,"HCV RNA below LOD, %",HCV GT2 or GT3; SVR-4,(60) %
same,"HCV RNA below LOD, %",HCV GT2 or GT3; SVR-12,(60) %
same,"HCV RNA below LOD, %",HCV GT2 or GT3; Time 1 wk,(50) %
same,"HCV RNA below LOD, %",HCV GT2 or GT3; Time 2 wks,(80) %
same,"HCV RNA below LOD, %",HCV GT2 or GT3; Time 3 wks,(100) %
same,"HCV RNA below LOD, %",HCV GT2 or GT3; Time 4 wks,(100) %
same,"HCV RNA below LOD, %",HCV GT2 or GT3; Time 8 wks,(100) %
same,"HCV RNA below LOD, %",HCV GT2 or GT3; Time 12 wks,(100) %
same,% < LOD,HCV GT2 or GT3; SVR-4,60%
same,n/N < LOD,HCV GT2 or GT3; SVR-4,6/10
same,% < LOD,HCV GT2 or GT3; SVR-8,60%
same,n/N < LOD,HCV GT2 or GT3; SVR-8,6/10
same,% < LOD,HCV GT2 or GT3; SVR-12,60%
same,n/N < LOD,HCV GT2 or GT3; SVR-12,6/10
same,% < LOD,HCV GT2 or GT3; SVR-24,60%
same,n/N < LOD,HCV GT2 or GT3; SVR-24,6/10
same,% < LOD,HCV GT2 or GT3; Time 0 wks,0%
same,% < LOD,HCV GT2 or GT3; Time 4 wks,100%
same,n/N < LOD,HCV GT2 or GT3; Time 4 wks,10/10
same,% < LOD,HCV GT2 or GT3; Time 8 wks,100%
same,n/N < LOD,HCV GT2 or GT3; Time 8 wks,10/10
same,% < LOD,HCV GT2 or GT3; Time 12 wks,100%
same,n/N < LOD,HCV GT2 or GT3; Time 12 wks,10/10
same,SVR-24,"HCV GT2 or GT3; treatment-naive GT2/GT3, 12 weeks GS-7977 400 mg QD",60%
same,SVR-12,"HCV GT2 or GT3; treatment-naive GT2/GT3 HCV patients, GS-7977 400 mg QD",60%
same,Alanine aminotransferase Grade 3: n,[5],0
same,Hemoglobin Grade 3: n,[5],0
same,INR Grade 3: n,[5],0
same,Lymphocytes Grade 3: n,[5],0
same,Lymphocytes Grade 4: %,[5],10%
same,Lymphocytes Grade 4: n,[5],1
same,Neutropenia Grade 3: n,[5],0
same,Neutropenia Grade 4: n,[5],0
same,White blood cells Grade 3: n,[5],0
same,S282T at relapse by deep sequencing,HCV NS5B S282T,99%
